# From PubChem BioAssay AID330 (DTP/NCI, 2004)
# “And” between values parts separate entries of the source, which are not always exact repeats. Equal entries are not always repeated. Toxic doses and inconclusive results are not listed.
# Test system: P388 leukemia ip, CD2F1 mice, survival T/C
# Assay: NCI In Vivo Anticancer Drug Screen. Data for tumor model P388 Leukemia (intraperitoneal) in CD2F1 (CDF1) mice
# Settings: endpoint: median survival time, higher = longer survival
# Summary of the method: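 Mice carrying the transplanted tumor received test compound or vehicle. Survival was recorded in each group, and the value is the treated-group measurement divided by that of the vehicle-treated control group.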
# [1] = dose: 50.0 mg/kg/injection, schedule: Q01DX009 (ip), vehicle: saline with Tween-80
# [2] = dose: 100.0 mg/kg/injection, schedule: Q01DX009 (ip), vehicle: saline with Tween-80
# [3] = dose: 200.0 mg/kg/injection, schedule: Q01DX009 (ip), vehicle: saline with Tween-80
# [4] = dose: 50.0 mg/kg/injection, schedule: Q04DX003 (ip), vehicle: saline with Tween-80
# [5] = dose: 100.0 mg/kg/injection, schedule: Q04DX003 (ip), vehicle: saline with Tween-80
# [6] = dose: 200.0 mg/kg/injection, schedule: Q04DX003 (ip), vehicle: saline with Tween-80
# [7] = dose: 400.0 mg/kg/injection, schedule: Q04DX003 (ip), vehicle: saline with Tween-80
# [8] = dose: 50.0 mg/kg/injection, schedule: Q01DX005 (ip), vehicle: Klucel (hydroxypropylcellulose) (HPC)
# [9] = dose: 100.0 mg/kg/injection, schedule: Q01DX005 (ip), vehicle: Klucel (hydroxypropylcellulose) (HPC)
# [10] = dose: 200.0 mg/kg/injection, schedule: Q01DX005 (ip), vehicle: Klucel (hydroxypropylcellulose) (HPC)
# [11] = dose: 30.0 mg/kg/injection, schedule: Q01DX005 (ip), vehicle: saline with Tween-80
# [12] = dose: 60.0 mg/kg/injection, schedule: Q01DX005 (ip), vehicle: saline with Tween-80
# [13] = dose: 120.0 mg/kg/injection, schedule: Q01DX005 (ip), vehicle: saline with Tween-80
# [14] = dose: 240.0 mg/kg/injection, schedule: Q01DX005 (ip), vehicle: saline with Tween-80
# [15] = dose: 50.0 mg/kg/injection, schedule: Q01DX009 (ip), vehicle: saline
# [16] = dose: 100.0 mg/kg/injection, schedule: Q01DX009 (ip), vehicle: saline
# [17] = dose: 200.0 mg/kg/injection, schedule: Q01DX009 (ip), vehicle: saline
structure (smiles),measurement,setting,value
CCOC(=O)c1ccc(NC(=S)P(=O)(c2ccccc2)c2ccccc2)cc1,T/C,"dose: 50.0 mg/kg/injection, schedule: Q01DX009 (ip), vehicle: Klucel (hydroxypropylcellulose) (HPC)",88 % of control
same,T/C,"dose: 100.0 mg/kg/injection, schedule: Q01DX009 (ip), vehicle: Klucel (hydroxypropylcellulose) (HPC)",89 % of control
same,T/C,"dose: 200.0 mg/kg/injection, schedule: Q01DX009 (ip), vehicle: Klucel (hydroxypropylcellulose) (HPC)",94 % of control
CCN(CC)CCNc1ccc(COC(=O)NC)c2oc3ccc(OC(=O)NC)cc3c(=O)c12,T/C,"dose: 3.13 mg/kg/injection, schedule: Q01DX005 (ip), vehicle: Klucel (hydroxypropylcellulose) (HPC)",123 % of control
CCCN1COC(OCCN(CC)CC)C(C)(C)C1 (stereo unspecified),T/C,[1],108 % of control
same,T/C,[2],113 % of control
same,T/C,[3],107 % of control
CCCCN(CCCC)CC(CN(CC)CC)N(CC)C(=O)Nc1ccccc1 (stereo unspecified),T/C,"dose: 12.5 mg/kg/injection, schedule: Q01DX005 (ip), vehicle: saline",94 % of control
same,T/C,"dose: 25.0 mg/kg/injection, schedule: Q01DX005 (ip), vehicle: saline",93 % of control
same,T/C,"dose: 50.0 mg/kg/injection, schedule: Q01DX005 (ip), vehicle: saline",102 % of control and 94 % of control
CC(=O)Nc1nc2c(=O)[nH]c(N)nc2n1C1OC(COC(C)=O)C(OC(C)=O)C1OC(C)=O (stereo unspecified),T/C,[4],96 % of control
same,T/C,[5],100 % of control
same,T/C,[6],105 % of control
same,T/C,[7],102 % of control
COc1c(NC(C)=O)c2ccccc2c2ccccc12,T/C,[8],106 % of control
same,T/C,[9],109 % of control
same,T/C,[10],97 % of control
CN(C)C=C1C(=O)CCCC1=O,T/C,"dose: 60.0 mg/kg/injection, schedule: Q01DX005 (ip), vehicle: saline",105 % of control
same,T/C,"dose: 120.0 mg/kg/injection, schedule: Q01DX005 (ip), vehicle: saline",117 % of control
CCO/C=C1/N=C(c2ccc3ccccc3c2)OC1=O,T/C,"dose: 60.0 mg/kg/injection, schedule: Q01DX005 (ip), vehicle: saline + Tween-80 + alcohol",101 % of control
same,T/C,"dose: 120.0 mg/kg/injection, schedule: Q01DX005 (ip), vehicle: saline + Tween-80 + alcohol",100 % of control
same,T/C,"dose: 240.0 mg/kg/injection, schedule: Q01DX005 (ip), vehicle: saline + Tween-80 + alcohol",86 % of control
C=C1C(=O)OC2CC1C(OC(C)=O)CC1(C)OC1CCC1(C)OC1CCC2(C)O (stereo unspecified),T/C,"dose: 6.26 mg/kg/injection, schedule: Q01DX009 (ip), vehicle: Klucel (hydroxypropylcellulose) (HPC)",119 % of control
same,T/C,"dose: 12.5 mg/kg/injection, schedule: Q01DX009 (ip), vehicle: Klucel (hydroxypropylcellulose) (HPC)",117 % of control
same,T/C,"dose: 25.0 mg/kg/injection, schedule: Q01DX009 (ip), vehicle: Klucel (hydroxypropylcellulose) (HPC)",123 % of control
O=c1c2ccccc2sc2c([N+](=O)[O-])ccc(NCCNCCO)c12,T/C,[1],120 % of control and 123 % of control
COc1cccc2c1C(=O)c1c(O)c3c(c(O)c1C2=O)CC(O)(C(C)=O)CC3OC1CC(NC(=O)CN(C)C)C(O)C(C)O1 (stereo unspecified),T/C,"dose: 0.25 mg/kg/injection, schedule: Q01DX009 (ip), vehicle: water",109 % of control
same,T/C,"dose: 0.5 mg/kg/injection, schedule: Q01DX009 (ip), vehicle: water",120 % of control
O=[N+]([O-])c1cc(Br)cc2c1[nH]c1nc3ccc(C(F)(F)F)cc3nc12,T/C,"dose: 100.0 mg/kg/injection, schedule: Q04DX003 (ip), vehicle: saline",91 % of control
same,T/C,"dose: 200.0 mg/kg/injection, schedule: Q04DX003 (ip), vehicle: saline",95 % of control
same,T/C,"dose: 400.0 mg/kg/injection, schedule: Q04DX003 (ip), vehicle: saline",94 % of control
[C-]#[N+]C1(c2ccccc2)C2CC3CC(C2)CC1C3 (stereo unspecified),T/C,"dose: 100.0 mg/kg/injection, schedule: Q04DX003 (ip), vehicle: Klucel (hydroxypropylcellulose) (HPC)",106 % of control
same,T/C,"dose: 200.0 mg/kg/injection, schedule: Q04DX003 (ip), vehicle: Klucel (hydroxypropylcellulose) (HPC)",100 % of control
same,T/C,"dose: 400.0 mg/kg/injection, schedule: Q04DX003 (ip), vehicle: Klucel (hydroxypropylcellulose) (HPC)",106 % of control
COc1cc(C2C(C(C)=O)=C(C)Oc3cc4c(cc32)OCO4)cc(OC)c1OC (stereo unspecified),T/C,[11],89 % of control
same,T/C,[12],87 % of control and 89 % of control
same,T/C,[13],90 % of control
same,T/C,[14],87 % of control
COc1ccc2c(c1N)CC[C@@H]1C2CC[C@]2(C)C(O)CCC12 (stereo partly specified),T/C,"dose: 50.0 mg/kg/injection, schedule: Q01DX005 (ip), vehicle: saline with Tween-80",104 % of control
same,T/C,"dose: 100.0 mg/kg/injection, schedule: Q01DX005 (ip), vehicle: saline with Tween-80",96 % of control
same,T/C,"dose: 200.0 mg/kg/injection, schedule: Q01DX005 (ip), vehicle: saline with Tween-80",91 % of control
CC(CO)/[N+]([O-])=N/O (stereo unspecified),T/C,"dose: 6.0 mg/kg/injection, schedule: Q01DX005 (ip), vehicle: Klucel (hydroxypropylcellulose) (HPC)",95 % of control
same,T/C,"dose: 12.0 mg/kg/injection, schedule: Q01DX005 (ip), vehicle: Klucel (hydroxypropylcellulose) (HPC)",94 % of control
same,T/C,"dose: 24.0 mg/kg/injection, schedule: Q01DX005 (ip), vehicle: Klucel (hydroxypropylcellulose) (HPC)",100 % of control
same,T/C,"dose: 48.0 mg/kg/injection, schedule: Q01DX005 (ip), vehicle: Klucel (hydroxypropylcellulose) (HPC)",100 % of control
COc1ccc(C(c2c(O)c3ccccc3oc2=O)N2CCOCC2)cc1 (stereo unspecified),T/C,"dose: 15.0 mg/kg/injection, schedule: Q01DX005 (ip), vehicle: saline with Tween-80",99 % of control
same,T/C,[11],97 % of control
same,T/C,[12],100 % of control and 94 % of control
Cc1ccc(S(=O)(=O)NC(=O)NNC(=O)C(=O)Nc2ccc(F)cc2)cc1,T/C,[8],100 % of control
same,T/C,[9],90 % of control
same,T/C,[10],90 % of control
CC(=O)OCC1OC(n2ccc(=S)[nH]c2=O)C(OC(C)=O)C1OC(C)=O (stereo unspecified),T/C,[4],93 % of control
same,T/C,[5],100 % of control
same,T/C,[6],92 % of control
same,T/C,[7],102 % of control
O=c1ccnc2ccccn12,T/C,[12],94 % of control
same,T/C,[13],107 % of control
same,T/C,[14],100 % of control
COC(=O)C(CCCCNC(=O)OCc1ccccc1)NC(=O)C(CCCCNC(=O)OCc1ccccc1)NC(=O)OC(C)(C)C (stereo unspecified),T/C,"dose: 6.25 mg/kg/injection, schedule: Q01DX005 (ip), vehicle: saline with Tween-80",100 % of control
same,T/C,"dose: 12.5 mg/kg/injection, schedule: Q01DX005 (ip), vehicle: saline with Tween-80",97 % of control
same,T/C,"dose: 25.0 mg/kg/injection, schedule: Q01DX005 (ip), vehicle: saline with Tween-80",97 % of control
Fc1cccc(CSC(=S)Nc2ccc(F)c(F)c2)c1,T/C,[15],116 % of control
same,T/C,[16],105 % of control
same,T/C,[17],115 % of control
Cc1c(N(C)C)nc2cc(N(C)C)ccc2c1Cl,T/C,[1],91 % of control
same,T/C,[2],92 % of control
same,T/C,[3],91 % of control
O=S(=O)(C1=C[C@H](O)C[C@@H]1O)c1ccccc1,T/C,"dose: 60.0 mg/kg/injection, schedule: Q01DX005 (ip), vehicle: Klucel (hydroxypropylcellulose) (HPC)",98 % of control
same,T/C,"dose: 120.0 mg/kg/injection, schedule: Q01DX005 (ip), vehicle: Klucel (hydroxypropylcellulose) (HPC)",107 % of control
same,T/C,"dose: 240.0 mg/kg/injection, schedule: Q01DX005 (ip), vehicle: Klucel (hydroxypropylcellulose) (HPC)",100 % of control
O=S(=O)(O)C1CC2NC3C4CCCC(S(=O)(=O)O)C4C(Nc4ccccc4)CC3N(c3ccccc3)C2CC1Nc1ccccc1 (stereo unspecified),T/C,[15],112 % of control
same,T/C,[16],116 % of control
same,T/C,[17],116 % of control
COc1ccc(C2CC(=O)N(CCCl)C(=O)C2)cc1,T/C,"dose: 100.0 mg/kg/injection, schedule: Q01DX001 (ip), vehicle: suspension in saline",102 % of control
same,T/C,"dose: 200.0 mg/kg/injection, schedule: Q01DX001 (ip), vehicle: suspension in saline",103 % of control
same,T/C,"dose: 400.0 mg/kg/injection, schedule: Q01DX001 (ip), vehicle: suspension in saline",100 % of control
